Source: patent US9453026B2, “ACC inhibitors and uses thereof” (Gilead Apollo, Inc., priority 2011, dated 2016)

Target: ACC2 (Homo sapiens, UniProt O00763)
Experiment: In vitro ACC2 inhibition assay (ADP-Glo)
Assay type: biochemical
Conditions: read-out: ACC2
Outline: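 Enzyme (human ACC1 or ACC2) and compound, serially diluted 1:3 over 11 points from a 600 uM DMSO stock, were preincubated 15 min before substrate addition.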

ACC2, sequence (O00763 whole entry, species assumed): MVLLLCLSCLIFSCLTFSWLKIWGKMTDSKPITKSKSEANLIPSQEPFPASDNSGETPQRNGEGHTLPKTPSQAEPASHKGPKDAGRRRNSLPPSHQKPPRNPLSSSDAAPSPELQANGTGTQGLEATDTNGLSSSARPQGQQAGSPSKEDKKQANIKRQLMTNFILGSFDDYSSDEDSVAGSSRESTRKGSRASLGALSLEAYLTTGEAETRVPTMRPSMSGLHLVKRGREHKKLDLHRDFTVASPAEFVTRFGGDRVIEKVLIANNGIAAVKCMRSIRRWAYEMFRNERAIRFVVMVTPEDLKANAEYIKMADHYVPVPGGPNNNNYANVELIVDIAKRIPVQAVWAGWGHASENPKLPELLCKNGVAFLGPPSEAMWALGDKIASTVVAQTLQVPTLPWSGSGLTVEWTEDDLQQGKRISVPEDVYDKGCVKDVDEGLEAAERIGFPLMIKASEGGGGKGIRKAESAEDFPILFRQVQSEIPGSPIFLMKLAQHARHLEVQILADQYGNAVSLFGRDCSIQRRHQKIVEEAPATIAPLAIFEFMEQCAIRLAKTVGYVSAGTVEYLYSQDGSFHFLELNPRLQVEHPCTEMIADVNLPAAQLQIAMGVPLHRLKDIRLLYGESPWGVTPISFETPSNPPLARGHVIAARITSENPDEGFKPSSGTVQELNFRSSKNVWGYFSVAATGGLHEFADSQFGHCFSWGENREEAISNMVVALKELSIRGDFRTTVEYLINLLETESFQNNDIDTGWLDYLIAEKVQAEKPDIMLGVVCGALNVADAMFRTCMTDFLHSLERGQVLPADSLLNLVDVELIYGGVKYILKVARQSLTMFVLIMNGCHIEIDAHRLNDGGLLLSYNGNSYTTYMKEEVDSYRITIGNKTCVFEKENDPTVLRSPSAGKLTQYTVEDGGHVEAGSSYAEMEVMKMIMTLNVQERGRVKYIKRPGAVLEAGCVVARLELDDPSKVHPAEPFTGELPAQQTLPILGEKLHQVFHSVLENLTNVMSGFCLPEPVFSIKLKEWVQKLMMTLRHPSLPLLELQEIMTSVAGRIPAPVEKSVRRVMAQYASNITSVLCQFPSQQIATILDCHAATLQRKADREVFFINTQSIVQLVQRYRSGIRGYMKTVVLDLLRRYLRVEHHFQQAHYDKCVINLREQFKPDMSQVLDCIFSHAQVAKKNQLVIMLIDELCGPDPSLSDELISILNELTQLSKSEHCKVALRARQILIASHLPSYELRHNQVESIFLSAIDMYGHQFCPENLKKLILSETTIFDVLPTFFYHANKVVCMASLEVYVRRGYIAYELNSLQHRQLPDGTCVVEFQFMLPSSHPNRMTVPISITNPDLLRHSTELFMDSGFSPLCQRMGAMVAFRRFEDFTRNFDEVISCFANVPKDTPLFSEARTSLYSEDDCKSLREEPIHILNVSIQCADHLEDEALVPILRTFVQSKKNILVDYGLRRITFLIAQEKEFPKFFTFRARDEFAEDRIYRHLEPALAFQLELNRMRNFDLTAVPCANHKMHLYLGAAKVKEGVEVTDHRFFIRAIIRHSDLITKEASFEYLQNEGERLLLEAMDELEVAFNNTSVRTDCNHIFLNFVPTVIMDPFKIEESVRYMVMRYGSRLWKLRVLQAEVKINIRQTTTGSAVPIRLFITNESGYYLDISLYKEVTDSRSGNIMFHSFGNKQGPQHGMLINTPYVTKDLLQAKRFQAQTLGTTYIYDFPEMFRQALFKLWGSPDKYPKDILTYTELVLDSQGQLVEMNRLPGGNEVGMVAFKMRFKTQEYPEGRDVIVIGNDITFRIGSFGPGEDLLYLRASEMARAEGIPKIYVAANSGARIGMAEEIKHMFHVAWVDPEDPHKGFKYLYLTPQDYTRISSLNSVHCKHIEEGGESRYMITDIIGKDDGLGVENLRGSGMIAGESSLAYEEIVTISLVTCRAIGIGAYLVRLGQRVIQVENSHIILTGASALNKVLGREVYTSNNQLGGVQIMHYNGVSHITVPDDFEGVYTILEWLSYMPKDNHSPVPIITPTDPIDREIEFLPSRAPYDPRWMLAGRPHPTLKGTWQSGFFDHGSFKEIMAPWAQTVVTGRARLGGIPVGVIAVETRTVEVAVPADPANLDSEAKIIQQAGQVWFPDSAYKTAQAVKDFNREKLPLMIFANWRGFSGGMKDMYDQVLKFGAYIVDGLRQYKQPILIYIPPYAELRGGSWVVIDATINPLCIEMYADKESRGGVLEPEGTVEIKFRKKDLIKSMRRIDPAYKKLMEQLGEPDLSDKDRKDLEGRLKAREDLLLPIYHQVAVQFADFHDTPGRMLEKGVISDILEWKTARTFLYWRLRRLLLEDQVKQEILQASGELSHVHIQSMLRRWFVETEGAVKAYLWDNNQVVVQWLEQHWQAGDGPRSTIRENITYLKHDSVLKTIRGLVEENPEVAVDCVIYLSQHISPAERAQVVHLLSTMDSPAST

SMILES	IC50 [µM]
CCOC(=O)c1sc2c(c1C)c(=O)n(CC(=O)OC(C)(C)C)c(=O)n2CCc1ccccc1 [I-8]	5 to 20
CCOC(=O)c1sc2c(c1C)c(=O)n(CCO)c(=O)n2CCc1ccccc1F [I-23, ethyl 1-[2-(2-fluorophenyl)ethyl]-3-(2-hydroxyethyl)-5-methyl-2,4-dioxo-1H,2H,3H,4H-thieno[2,3-d]pyrimidine-6-carboxylate]	20 to 50
O=C(O)Cn1c(=O)c2c3c(sc2n(CCc2ccccc2)c1=O)CCC3 [I-4]	20 to 50
Cc1c(-c2ncco2)sc2c1c(=O)n(C(C)(C)C(=O)O)c(=O)n2C[C@H](OCC(C)(C)O)c1ccccc1 [I-175, 2-[1-[(2R)-2-(2-hydroxy-2-methylpropoxy)-2-phenylethyl]-5-methyl-6-(1,3-oxazol-2-yl)-2,4-dioxo-1H,2H,3H,4H-thieno[2,3-d]pyrimidin-3-yl]-2-methylpropanoic acid]	< 1
Cc1c(-c2ncco2)sc2c1c(=O)n(C(C)(C)C(=O)O)c(=O)n2C[C@H](O[C@H]1CC[C@@H](N)CC1)c1ccccc1 [I-167, 2-(1-((R)-2-(((1s,4S)-4-aminocyclohexyl)oxy)-2-phenylethyl)-5-methyl-6-(oxazol-2-yl)-2,4-dioxo-1,2-dihydrothieno[2,3-d]pyrimidin-3(4H)-yl)-2-methylpropanoic acid]	< 5
CCOC(=O)c1sc2c(c1C)c(=O)n(C(C)(C)C(=O)O)c(=O)n2C[C@@H](OC(C)C)c1ccccc1 [I-109, 2-[6-(ethoxycarbonyl)-5-methyl-2,4-dioxo-1-[(2S)-2-phenyl-2-(propan-2-yloxy)ethyl]-1H,2H,3H,4H-thieno[2,3-d]pyrimidin-3-yl]-2-methylpropanoic acid]	5 to 20
Cc1c(C(=O)O)sc2c1c(=O)n(CCO)c(=O)n2CCc1ccccc1 [I-5]	> 50
CCOC(=O)c1sc2c(c1C)c(=O)n(CCO)c(=O)n2CCCc1ccccc1 [I-12]	> 50
CCOC(=O)c1sc2c(c1C)c(=O)n(CC(=O)O)c(=O)n2CCc1nc2ccccc2s1 [I-84, 2-[1-[2-(1,3-benzothiazol-2-yl)ethyl]-6-(ethoxycarbonyl)-5-methyl-2,4-dioxo-1H,2H,3H,4H-thieno[2,3-d]pyrimidin-3-yl]acetic acid]	> 50
Cc1c(C(=O)OC2CCC2)sc2c1c(=O)n(CC(=O)O)c(=O)n2CCc1ccccc1 [I-86, 2-[6-(cyclobutoxycarbonyl)-5-methyl-2,4-dioxo-1-(2-phenylethyl)-1H,2H,3H,4H-thieno[2,3-d]pyrimidin-3-yl]acetic acid]	5 to 20
Cc1c(-n2nccn2)sc2c1c(=O)n(C(C)(C)C(=O)O)c(=O)n2CCc1ccccc1 [I-122, 2-methyl-2-[5-methyl-2,4-dioxo-1-(2-phenylethyl)-6-(2H-1,2,3-triazol-2-yl)-1H,2H,3H,4H-thieno[2,3-d]pyrimidin-3-yl]propanoic acid]	< 1
CCOC(=O)c1sc2c(c1C)c(=O)n(CC(C)O)c(=O)n2CCc1ccccc1 (centres unmarked) [I-62, ethyl 3-(2-hydroxypropyl)-5-methyl-2,4-dioxo-1-(2-phenylethyl)-1H,2H,3H,4H-thieno[2,3-d]pyrimidine-6-carboxylate]	5 to 20
CNC(=O)c1sc2c(c1C)c(=O)n(CCO)c(=O)n2CCc1ccccc1 [I-27]	> 50
CCOC(=O)c1sc2c(c1C)c(=O)n(CC(=O)O)c(=O)n2Cc1ccc2c(c1)OCO2 [I-50, 2-[1-(2H-1,3-benzodioxol-5-ylmethyl)-6-(ethoxycarbonyl)-5-methyl-2,4-dioxo-1H,2H,3H,4H-thieno[2,3-d]pyrimidin-3-yl]acetic acid]	> 50
Cc1c(C2=NCCO2)sc2c1c(=O)n(CC(=O)O)c(=O)n2CCc1ccccc1 [I-87, 2-[6-(4,5-dihydro-1,3-oxazol-2-yl)-5-methyl-2,4-dioxo-1-(2-phenylethyl)-1H,2H,3H,4H-thieno[2,3-d]pyrimidin-3-yl]acetic acid]	< 5
COCc1sc2c(c1C)c(=O)n(CC(=O)O)c(=O)n2CCc1ccccc1 [I-75, 2-[6-(methoxymethyl)-5-methyl-2,4-dioxo-1-(2-phenylethyl)-1H,2H,3H,4H-thieno[2,3-d]pyrimidin-3-yl]acetic acid]	5 to 20
CCOC(=O)c1sc2c(c1C)c(=O)n(C(C)(C)C(=O)O)c(=O)n2C[C@H](OC(C)(C)C)c1ccccc1 [I-127, 2-[1-[(2R)-2-(tert-butoxy)-2-phenylethyl]-6-(ethoxycarbonyl)-5-methyl-2,4-dioxo-1H,2H,3H,4H-thieno[2,3-d]pyrimidin-3-yl]-2-methylpropanoic acid]	20 to 50
CCOC(=O)c1sc2c(c1C)c(=O)n(CCO)c(=O)n2CCc1cccc2ccccc12 [I-22]	> 50

The next lines start with the values.

IC50 [µM]	SMILES
> 50	Cc1c(C(N)=O)sc2c1c(=O)n(CC(=O)O)c(=O)n2CCc1ccccc1 [I-71, 2-[6-carbamoyl-5-methyl-2,4-dioxo-1-(2-phenylethyl)-1H,2H,3H,4H-thieno[2,3-d]pyrimidin-3-yl]acetic acid]
5 to 20	Cc1c(-c2ncco2)sc2c1c(=O)n(C(C)(C)C(=O)O)c(=O)n2C[C@@H](Oc1ccccc1)c1ccccc1 [I-144, 2-methyl-2-[5-methyl-6-(1,3-oxazol-2-yl)-2,4-dioxo-1-[(2S)-2-phenoxy-2-phenylethyl]-1H,2H,3H,4H-thieno[2,3-d]pyrimidin-3-yl]propanoic acid]
5 to 20	CCOC(=O)c1sc2c(c1C)c(=O)n(C(C)(C)C(=O)O)c(=O)n2C[C@@H](OC)c1ccccc1 [I-111, 2-[6-(ethoxycarbonyl)-1-[(2S)-2-methoxy-2-phenylethyl]-5-methyl-2,4-dioxo-1H,2H,3H,4H-thieno[2,3-d]pyrimidin-3-yl]-2-methylpropanoic acid]
< 1	CCOC(=O)c1sc2c(c1C)c(=O)n(C(C)(C)C(=O)O)c(=O)n2CC(O)c1ccccc1 (stereo in doubt) [I-103, 2-[6-(ethoxycarbonyl)-1-[(2S)-2-hydroxy-2-phenylethyl]-5-methyl-2,4-dioxo-1H,2H,3H,4H-thieno[2,3-d]pyrimidin-3-yl]-2-methylpropanoic acid]
20 to 50	CCOC(=O)c1sc2c(c1C)c(=O)n(CCO)c(=O)n2C(C)Cc1ccccc1 (centres unmarked) [I-36, ethyl 3-(2-hydroxyethyl)-5-methyl-2,4-dioxo-1-(1-phenylpropan-2-yl)-1H,2H,3H,4H-thieno[2,3-d]pyrimidine-6-carboxylate]
20 to 50	CCOC(=O)c1sc2c(c1C)c(=O)n(CC(=O)O)c(=O)n2Cc1ccc2[nH]ccc2c1 [I-90, 2-[6-(ethoxycarbonyl)-1-(1H-indol-5-ylmethyl)-5-methyl-2,4-dioxo-1H,2H,3H,4H-thieno[2,3-d]pyrimidin-3-yl]acetic acid]
< 5	CCOC(=O)c1sc2c(c1C)c(=O)n(C(C)(C)C(=O)O)c(=O)n2CCc1ccccc1OC(F)(F)F [I-106, 2-[6-(ethoxycarbonyl)-5-methyl-2,4-dioxo-1-[2-[2-(trifluoromethoxy)phenyl]ethyl]-1H,2H,3H,4H-thieno[2,3-d]pyrimidin-3-yl]-2-methylpropanoic acid]
< 5	COc1ccccc1[C@H](Cn1c(=O)n(CC(N)=O)c(=O)c2c(C)c(Br)sc21)OC1CCOCC1 [I-285, 2-[6-bromo-1-[(2R)-2-(2-methoxyphenyl)-2-(oxan-4-yloxy)ethyl]-5-methyl-2,4-dioxo-1H,2H,3H,4H-thieno[2,3-d]pyrimidin-3-yl]acetamide]
